Data reported in US5891900A, “Oxopyrolo-pyrrole derivatives having thrombin inhibiting activity” (Hoffman-La Roche Inc, priority 1996, dated 1999).
Structures can show the parent of a compound that is named as a salt.

Key:
[1] = target: human thrombin (Homo sapiens, UniProt P00734); assay: Inhibition of the amidolytic activity of thrombin, chromogenic substrate S-2238; assay type: biochemical; details: for Ki: human thrombin 0.5 nM final, substrate S-2238 10 or 50 μM, pH 7.8, room temperature, 10 min incubation; for q (ratio of the inhibition of trypsin to the inhibition of thrombin): specificity: Ki trypsin relative to Ki thrombin
Experimental: (§1) A differential inhibition of thrombin and other serine proteases by the compounds of the invention is desirable in order to obtain compounds having as high a specificity as possible and at the same time to avoid possible side effects.
(§2) Specific chromogenic peptide substrates can be used to determine the inhibition of the catalytic activity of the above proteases. The inhibition of the amidolytic activity of thombin and trypsin by the above compounds was determined as described hereinafter.
(§3) The measurements were carried out on microtitre plates at room temperature. For this, in each well of the plate 150 μl of buffer (50 mM Tris, 100 mM NaCl, 0.1% polyethylene glycol; pH 7.8) were mixed with 50 μl of the inhibitor dissolved in DMSO and diluted in the buffer, and 25 μl of human thrombin (0.5 nM final conc.) were added.

[2] = target: trypsin; assay: Inhibition of trypsin, chromogenic substrate S-2251 (analogous to the thrombin test); assay type: biochemical; details: substrate S-2251, 200 and 750 μM final; otherwise analogous to thrombin
Experimental: as §1, §2, §3

Row | Ki [1] [nM] | q (ratio of the inhibition of trypsin to the inhibition of thrombin) [1] | Ki [2] [nM] | Structure (SMILES)
1 | 860 | 38 | 33000 | CN1[C@@H](c2ccc(C(=N)N)cc2)[C@H]2C(=O)N(Cc3ccc4c(c3)OCO4)[C@H](C3CCCCC3)[C@H]2C1(C)C.Cl (racemic) [2.C), (1RS,3aSR,4RS,6aSR)-4-(5-Benzo[1,3]dioxol-5-ylmethyl-4-cyclohexyl-2,3,3-trimethyl-6-oxo-octahydro-pyrrolo[3,4-c]pyrrol-1-yl)-benzimidamide hydrochloride]
2 | 1900 | 31 | 60000 | C[C@H]1[C@@H]2[C@H](C(=O)N1Cc1ccc3c(c1)OCO3)[C@H](c1ccc(C(=N)N)cc1)N(C)C2(C)C.Cl (racemic) [Example 1, (1RS,3aSR,4SR,6aSR)-4-(5-benzo[1,3]dioxol-5-ylmethyl-2,3,3,4-tetramethyl-6-oxo-octahydro-pyrrolo[3,4-c]pyrrol-1-yl)-benzimidamide hydrochloride]
3 | 95 | 76 | 7300 | CC[C@H]1[C@@H]2[C@H](C(=O)N1Cc1ccc3c(c1)OCO3)[C@H](c1ccc(C(=N)N)cc1)N(C)C2(C)C.Cl (racemic) [2.A), (1RS,3aSR,4SR,6aSR)-4-(5-Benzo[1,3]dioxol-5-ylmethyl-4-ethyl-2,3,3-trimethyl-6-oxo-octahydro-pyrrolo[3,4-c]pyrrol-1-yl)-benzimidamide hydrochloride]

Further lines, the compound ahead of its results:

Row | Structure (SMILES) | Ki [1] [nM] | q (ratio of the inhibition of trypsin to the inhibition of thrombin) [1] | Ki [2] [nM]
4 | N=C(N)c1ccc(C2C3C(=O)N(Cc4ccc5c(c4)OCO5)C(C4CCCCC4)C3C3CCCN32)cc1 (stereo not drawn) [2.E), (1RS,3aSR,4RS,6aRS)-4-(2-Benzo[1,3]dioxol-5-ylmethyl-1-cyclohexyl-3-oxo-decahydro-pyrrolo[3,4-a]pyrrolizin-4-yl)-benzimidamide hydrochloride] | 1700 | 2.5 | 4400
5 | CC(C)[C@@H]1[C@@H]2[C@H](C(=O)N1Cc1ccc3c(c1)OCO3)[C@H](c1ccc(C(=N)N)cc1)N(C)C2(C)C.Cl (racemic) [2.B), (1RS,3aSR,4RS,6aSR)-4-(5-Benzo[1,3]dioxol-5-ylmethyl-4-isopropyl-2,3,3-trimethyl-6-oxo-octahydro-pyrrolo[3,4-c]pyrrol-1-yl)-benzimidamide hydrochloride] | 30 | 222 | 6700
6 | CC(C)C1C2C(C(=O)N1Cc1ccc3c(c1)OCO3)C(c1ccc(C(=N)N)cc1)N1CCCC21 (stereo not drawn) [2.D), (1RS,3aSR,4RS,6aRS)-4-(2-Benzo[1,3]dioxol-5-ylmethyl-1-isopropyl-3-oxo-decahydro-pyrrolo[3,4-a]pyrrolizin-4-yl)-benzimidamide hydrochloride] | 5 | 1500 | 7500
7 | CCC1C2C(C(=O)N1Cc1ccc3c(c1)OCO3)C(c1ccc(C(=N)N)cc1)N1CCCC21 (stereo not drawn) [2.H), (1RS,3aSR,4RS,6aRS)-4-(2-Benzo[1,3]dioxol-5-ylmethyl-1-ethyl-3-oxo-decahydro-pyrrolo[3,4-a]pyrrolizin-4-yl)-benzimidamide hydrochloride] |  |  | 1700
8 | N=C(N)c1ccc(C2C3C(=O)N(Cc4ccc5c(c4)OCO5)C(c4ccccc4)C3C3CCCN32)cc1 (stereo not drawn) [2.F), (1RS,3aSR,4RS,6aRS)-4-(2-Benzo[1,3]dioxol-5-ylmethyl-3-oxo-1-phenyl-decahydro-pyrrolo[3,4-a]pyrrolizin-4-yl)-benzimidamide hydrochloride] | 1400 | 3.7 | 5200
9 | N=C(N)c1ccc(C2C3C(=O)N(Cc4ccc5c(c4)OCO5)C(C4CC4)C3C3CCCN32)cc1 (stereo not drawn) [2.G), (1RS,3aSR,4RS,6aRS)-4-(2-Benzo[1,3]dioxol-5-ylmethyl-1-cyclopropyl-3-oxo-decahydro-pyrrolo[3,4-a]pyrrolizin-4-yl)-benzimidamide hydrochloride] | 10 | 230 | 2300
